Assay results from patent US20080269241A1, “BICYCLIC AMINOPROPYL TETRAHYDRO-PYRAZOLO-PYRIDINE MODULATORS OF CATHEPSIN S” (priority 2007, published 2008).
Where two headings read alike, the source gives them in different places.

Molecular target: T1, human cathepsin S (CatS) (Homo sapiens, UniProt P25774)
T1 construct: made in house; host or cells: baculovirus system (insect cells)
Assay: Recombinant human cathepsin S (CatS) fluorogenic substrate inhibition assay
Assay type: biochemical
Method: Recombinant human cathepsin S (CatS) was expressed in the baculovirus system and purified in one step with a thiopropyl-sepharose column. […] The assay is run in 150 mM sodium acetate pH 5.0 containing 1.5 mM DTT and 150 mM NaCl. […] Measurements are taken every min for 20 min. The rate is calculated from the slope of the increase in fluorescence and the percent inhibition is calculated from this.

[1] = recombinant human CatS, 10 μM Z-Valine-Valine-Arginine-AMC, pH 5.0, average of results obtained, read-out: CatS IC50

T1 sequence (P25774 115-331): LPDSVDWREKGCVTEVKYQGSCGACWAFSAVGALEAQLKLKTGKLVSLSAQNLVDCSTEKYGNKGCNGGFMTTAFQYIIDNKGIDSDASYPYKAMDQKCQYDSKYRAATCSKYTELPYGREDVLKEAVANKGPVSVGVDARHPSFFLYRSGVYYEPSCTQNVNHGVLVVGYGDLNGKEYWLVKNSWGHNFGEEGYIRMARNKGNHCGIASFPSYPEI

| SMILES | IC50 [1] [nM] | IC50 [nM] |
| --- | --- | --- |
| CS(=O)(=O)N1CCc2c(c(-c3ccc(Cl)c(NC(=O)c4ccc(Cl)cc4)c3)nn2CCCN2CCN(c3cccc(Cl)c3)CC2)C1 [Example 200, 4-Chloro-N-[2-chloro-5-(1-{3-[4-(3-chloro-phenyl)-piperazin-1-yl]-propyl}-5-methanesulfonyl-4,5,6,7-tetrahydro-1H-pyrazolo[4,3-c]pyridin-3-yl)-phenyl]-benzamide] | 600 | – |
| CC(C)CC(=O)NCc1cc(-c2nn(CC(O)CN3CCC(c4ccccc4)CC3)c3c2CN(S(C)(=O)=O)CC3)ccc1C(F)(F)F (centres unmarked) [Example 288, N-(5-{1-[2-Hydroxy-3-(4-phenyl-piperidin-1-yl)-propyl]-5-methanesulfonyl-4,5,6,7-tetrahydro-1H-pyrazolo[4,3-c]pyridin-3-yl}-2-trifluoromethyl-benzyl)-3-methyl-butyramide] | – | 10 |
| CN(C)C(=O)NCc1cc(-c2nn(CC(O)CN3CCC(n4c(=O)n(C)c5ccc(N(C)C)nc54)CC3)c3c2CN(S(C)(=O)=O)CC3)ccc1C(F)(F)F (centres unmarked) [Example 147, 2-Dimethylamino-N-[5-(1-{3-[4-(5-Dimethylamino-1-methyl-2-oxo-1,2-dihydro-imidazo[4,5-b]pyridin-3-yl)-piperidin-1-yl]-2-hydroxy-propyl}-5-methanesulfonyl-4,5,6,7-tetrahydro-1H-pyrazolo[4,3-c]pyridin-3-yl)-2-trifluoromethyl-benzyl]-1,1-dimethyl-urea] | – | 140 |
| CS(=O)(=O)N1CCc2c(c(-c3ccc(C(F)(F)F)c(CNC(=O)c4cccnc4)c3)nn2CC(O)CN2CCC(N3CCCC3=O)CC2)C1 (centres unmarked) [Example 126, N-[5-(1-{2-Hydroxy-3-[4-(2-oxo-pyrrolidin-1-yl)-piperidin-1-yl]-propyl}-5-methanesulfonyl-4,5,6,7-tetrahydro-1H-pyrazolo[4,3-c]pyridin-3-yl)-2-trifluoromethyl-benzyl]-nicotinamide] | 210 | – |
| CC(C)=CC(=O)NCc1cc(-c2nn(CC(O)CN3CCC(c4ccccc4)CC3)c3c2CN(S(C)(=O)=O)CC3)ccc1C(F)(F)F (centres unmarked) [Example 274, 3-Methyl-but-2-enoic acid 5-{1-[2-hydroxy-3-(4-phenyl-piperidin-1-yl)-propyl]-5-methanesulfonyl-4,5,6,7-tetrahydro-1H-pyrazolo[4,3-c]pyridin-3-yl}-2-trifluoromethyl-benzylamide] | 10 | – |
| CS(=O)(=O)N1CCc2c(c(-c3ccc(C(F)(F)F)c(CNC(=O)c4cccs4)c3)nn2CC(O)CN2CCC(N3CCCC3=O)CC2)C1 (centres unmarked) [Example 105, Thiophene-2-carboxylic acid 5-(1-{2-hydroxy-3-[4-(2-oxo-pyrrolidin-1-yl)-piperidin-1-yl]-propyl}-5-methanesulfonyl-4,5,6,7-tetrahydro-1H-pyrazolo[4,3-c]pyridin-3-yl)-2-trifluoromethyl-benzylamide] | 40 | – |
| CS(=O)(=O)N1CCc2c(c(-c3ccc(C(F)(F)F)c(CNC(=O)c4cc5ccccc5s4)c3)nn2CC(O)CN2CCC(N3CCCC3=O)CC2)C1 (centres unmarked) [Example 106, Benzo[b]thiophene-2-carboxylic acid 5-(1-{2-hydroxy-3-[4-(2-oxo-pyrrolidin-1-yl)-piperidin-1-yl]-propyl}-5-methanesulfonyl-4,5,6,7-tetrahydro-1H-pyrazolo[4,3-c]pyridin-3-yl)-2-trifluoromethyl-benzylamide] | 60 | – |
| COc1ccc(NCc2cc(-c3nn(CCCN4CCC(N5CCCC5=O)CC4)c4c3CN(S(C)(=O)=O)CC4)ccc2Cl)cc1 [Example 209, 1-{1-[3-(3-{4-Chloro-3-[(4-methoxy-phenylamino)-methyl]-phenyl}-5-methanesulfonyl-4,5,6,7-tetrahydro-pyrazolo[4,3-c]pyridin-1-yl)-propyl]-piperidin-4-yl}-pyrrolidin-2-one] | 660 | – |
